Patent US7084253B2, “Protease-activated receptor PAR4 (ZCHEMR2)” (ZymoGenetics, Inc., priority 1998, dated 2006)
Positions count from the first letter of the chain named. Entries after “also recorded” stand apart in the source; their conditions may differ. Read-outs that look alike come from different tables or passages of the source. No end group written: not given here.

Legend:
PAR4 = molecular target: T1, PAR4 (Homo sapiens, UniProt Q96RI0, A120T); test: phosphoinositide hydrolysis assay in COS cells transiently transfected with PAR4 cDNA; type: cell-based; settings: for activity against PAR4 (other proteases): concentration not given; for response of PAR4-transfected COS cells (phosphatidylinositol 4,5 diphosphate hydrolysis): protease at 100 nM
T1 construct: expressed in transfected cells; host or cells: COS-7
T1 sequence (Q96RI0 18-385 A120T): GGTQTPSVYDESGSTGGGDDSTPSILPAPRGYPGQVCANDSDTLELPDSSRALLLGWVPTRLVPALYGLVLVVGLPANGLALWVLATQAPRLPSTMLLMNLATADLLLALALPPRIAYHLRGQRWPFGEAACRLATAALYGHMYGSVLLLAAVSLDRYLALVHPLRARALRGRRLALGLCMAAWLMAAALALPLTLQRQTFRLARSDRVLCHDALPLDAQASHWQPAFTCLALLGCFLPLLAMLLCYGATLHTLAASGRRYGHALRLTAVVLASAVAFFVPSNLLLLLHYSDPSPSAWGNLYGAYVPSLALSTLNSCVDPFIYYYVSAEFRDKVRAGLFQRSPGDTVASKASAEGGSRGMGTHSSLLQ
Procedure: (§1) COS cells were transiently transfected with PAR4 cDNA, and examined for responses to thrombin and trypsin. Briefly, for the phosphoinositide hydrolysis assay, COS-7 cells were grown in Dulbecco's modified Eagle's medium (DMEM; Gibco/BRL, Gaithersburg, Md.) with 10% fetal bovine serum (FBS). Cells were plated at 3.5×10^5/35-mm plate one day before transfection. Two μg of DNA were transfected using 12 μl of lipofectAMINE (Gibco/BRL) for 5 h. The cells were incubated overnight in DMEM with 10% FBS, and then split into triplicate 35-mm wells. Forty-eight hours after transfection, the cells were loaded with 2 μCi/ml [^3H]myo-inositol (Amersham, Arlington Heights, Ill.) in serum-free DMEM and incubated overnight at 37° C. Cells were washed and treated with 20 mM LiCl in DMEM, with or without protease or peptide activators added at various concentrations. Cells were then incubated for 2 h at 37° C. and extracted with 750 μl of 20 mM formic acid for 30 min on ice. The inositol mono-, bis-, and trisphosphates were purified through a one ml AG 1-X8 anion-exchange resin (Bio-Rad, Hercules, Calif.) (T. Nanevicz et al., J. Biol. Chem. 271:702–06, 1996), and quantitated by scintillation counting. In each hydrolysis assay, surface expression levels of receptors were determined in triplicate in parallel cultures.

PAR1 = molecular target: T2, PAR1 (Homo sapiens, UniProt P25116); test: thrombin-stimulated phosphoinositide hydrolysis, PAR1 (comparison); type: cell-based; settings: comparison with PAR4; read-out: half-maximal concentration (EC50) for PAR1
T2 construct: expressed in transfected cells; COS-7 inferred from the assay of b141
T2 sequence (P25116 22-425): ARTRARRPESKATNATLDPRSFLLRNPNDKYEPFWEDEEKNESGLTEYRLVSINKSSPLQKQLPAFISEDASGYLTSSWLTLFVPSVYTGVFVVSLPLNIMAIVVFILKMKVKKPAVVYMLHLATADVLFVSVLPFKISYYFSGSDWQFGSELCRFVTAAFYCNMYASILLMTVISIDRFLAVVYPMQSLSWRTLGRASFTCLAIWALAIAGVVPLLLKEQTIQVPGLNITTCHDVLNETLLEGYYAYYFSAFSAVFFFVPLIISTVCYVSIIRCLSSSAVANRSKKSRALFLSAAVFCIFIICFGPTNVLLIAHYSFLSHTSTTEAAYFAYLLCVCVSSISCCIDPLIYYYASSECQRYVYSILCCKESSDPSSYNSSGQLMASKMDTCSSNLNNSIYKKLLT
Procedure: For comparative purposes, PAR1 protein was prepared. Briefly, the cDNA coding for PAR1 was isolated from a placental cDNA library by PCR. The PAR1 DNA sequence obtained was essentially identical to that previously reported, except for nucleotides 711–712 (CG→GC) and nucleotides 1091–1092 (CG→GC). […] These amino acid changes were confirmed by sequence analysis of the corresponding regions in the genomic DNA coding for PAR1.
as §1, with “Forty-eight hours after transfection, the cells were loaded with 2 μCi/ml [^3H]myo-inositol (Amersham, Arlington Heights, Ill.) in serum-free DMEM and incubated overnight at 37° C. Cells were washed and treated with 20 mM LiCl in DMEM, with or without protease or peptide activators added at various concentrations. Cells were then incubated for 2 h at 37° C. and extracted with 750 μl of 20 mM formic acid for 30 min on ice.” left out

PAR4 (R47A) = molecular target: T3, PAR4 (R47A) (Homo sapiens, UniProt Q96RI0, A120T/R47A); test: phosphoinositide hydrolysis in COS cells expressing cleavage site mutant PAR4 (R47A); type: cell-based; settings: Ala for Arg at residue 47
T3 construct: expressed in transfected cells; host or cells: COS cells
T3 sequence (Q96RI0 18-385 R47A/A120T): T1 sequence (Q96RI0 18-385 A120T) with R30A
Procedure: as §1, with “cultures. […]” for “cultures.”

PAR4 (R68A) = molecular target: T4, PAR4 (R68A) (Homo sapiens, UniProt Q96RI0, A120T/R68A); test: phosphatidylinositol 4,5 diphosphate hydrolysis assay in COS cells expressing PAR4 mutant R68A; type: cell-based; settings: Arg 68 to Ala, extracellular amino-terminal region
T4 construct: expressed in transfected cells; host or cells: COS cells (inferred from the R47A sentence of the same paragraph)
T4 sequence (Q96RI0 18-385 R68A/A120T): T1 sequence (Q96RI0 18-385 A120T) with R51A
Procedure: as §1, with “cultures. […]” for “cultures.”

PAR3 = molecular target: T5, PAR3 (Homo sapiens, UniProt O00254); settings: comparison with PAR4; read-out: half-maximal concentration (EC50) for PAR3; cited from earlier work
T5 sequence (O00254 22-374): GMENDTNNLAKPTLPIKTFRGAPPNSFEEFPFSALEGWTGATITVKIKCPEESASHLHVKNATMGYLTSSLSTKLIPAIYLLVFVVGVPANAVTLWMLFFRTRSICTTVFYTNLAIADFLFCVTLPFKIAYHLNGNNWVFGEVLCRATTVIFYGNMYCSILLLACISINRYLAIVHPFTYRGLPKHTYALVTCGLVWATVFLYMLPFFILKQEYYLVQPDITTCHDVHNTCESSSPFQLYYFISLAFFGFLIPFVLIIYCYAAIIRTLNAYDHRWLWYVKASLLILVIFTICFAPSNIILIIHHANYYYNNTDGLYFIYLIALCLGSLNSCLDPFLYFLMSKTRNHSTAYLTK

[1] = PAR4-transfected COS cells, read-out: half-maximal concentration (EC50), phosphoinositide hydrolysis with PAR4

Which “activity against PAR4 (other proteases)” value (PAR4) does the source give for Chymotrypsin here?
Its value is “failed to activate”.

Which EC50 (PAR4) does the source give for GYPGQV [GYPGQV] here?
Its EC50 is about 100000 nM.

Which “activity toward PAR4 of PAR1 activating peptide” value (PAR4; concentration effective for PAR1 activation) does the source give for SFLLRN [reference compound] here?
The value was “no activity”.

With elastase as the molecule, how does the “activity against PAR4 (other proteases)” value (PAR4) read?
The value was “failed to activate”.

Which EC50 (PAR4; [1]) does the source give for thrombin here?
Its EC50 is 5 nM.

What about the “response of PAR4-transfected COS cells (phosphatidylinositol 4,5 diphosphate hydrolysis)” value (PAR4) of the same molecule?
The value was “did respond”.

And the EC50 (PAR1)?
The EC50 was about 0.2 nM.

What about the “response of putative cleavage site mutant PAR4 (R47A) to protease” value (PAR4 (R47A)) of the same molecule?
The value was “failed to respond; also recorded: only activate the wild-type PAR4”.

What about the “effect of R68A mutation on PAR4 activation by protease” value (PAR4 (R68A)) of the same molecule?
The value was “no effect”.

What about the EC50 (PAR3) of the same molecule?
Its EC50 is about 0.2 nM.

Which results are given for “trypsin: serine protease, activator of PAR4”?
EC50 (PAR4; [1]): 5 nM; response of PAR4-transfected COS cells (phosphatidylinositol 4,5 diphosphate hydrolysis) (PAR4): did respond; response of putative cleavage site mutant PAR4 (R47A) to protease (PAR4 (R47A)): failed to respond; also recorded: only activate the wild-type PAR4; effect of R68A mutation on PAR4 activation by protease (PAR4 (R68A)): no effect

For urokinase, which “activity against PAR4 (other proteases)” value (PAR4) is on record?
Its value is “little or no activity”.

B1: plasmin: arginine/lysine-specific serine protease (protein, UniProt P00747 20-580; P00747 581-810, looked up)
Plasmin heavy chain A: EPLDDYVNTQGASLFSVTKKQLGAGSIEECAAKCEEDEEFTCRAFQYHSKEQQCVIMAENRKSSIIIRMRDVVLFEKKVYLSECKTGNGKNYRGTMSKTKNGITCQKWSSTSPHRPRFSPATHPSEGLEENYCRNPDNDPQGPWCYTTDPEKRYDYCDILECEEECMHCSGENYDGKISKTMSGLECQAWDSQSPHAHGYIPSKFPNKNLKKNYCRNPDRELRPWCFTTDPNKRWELCDIPRCTTPPPSSGPTYQCLKGTGENYRGNVAVTVSGHTCQHWSAQTPHTHNRTPENFPCKNLDENYCRNPDGKRAPWCHTTNSQVRWEYCKIPSCDSSPVSTEQLAPTAPPELTPVVQDCYHGDGQSYRGTSSTTTTGKKCQSWSSMTPHRHQKTPENYPNAGLTMNYCRNPDADKGPWCFTTDPSVRWEYCNLKKCSGTEASVVAPPPVVLLPDVETPSEEDCMFGNGKGYRGKRATTVTGTPCQDWAAQEPHRHSIFTPETNPRAGLEKNYCRNPDGDVGGPWCYTTNPRKLYDYCDVPQCAAPSFDCGKPQVEPKKCPGR
Plasmin light chain B: VVGGCVAHPHSWPWQVSLRTRFGMHFCGGTLISPEWVLTAAHCLEKSPRPSSYKVILGAHQEVNLEPHVQEIEVSRLFLEPTRKDIALLKLSSPAVITDKVIPACLPSPNYVVADRTECFITGWGETQGTFGAGLLKEAQLPVIENKVCNRYEFLNGRVQSTELCAGHLAGGTDSCQGDSGGPLVCFEKDKYILQGVTSWGLGCARPNKPGVYVRVSRFVTWIEGVMRNN
modifications: Plasmin
notes: arginine/lysine-specific serine protease
With B1 as the molecule, how does the “activity against PAR4 (other proteases)” value (PAR4) read?
The value was “little or no activity”.
